Measured values published in patent publication US9278131B2, “Process for lowering the viscosity of highly concentrated protein solutions” (ADOCIA, priority 2012, dated 2016).
Blank lines part the entries; values can stand above or below the molecule they belong to.

How the values were obtained:
bevacizumab = assay: viscosity of highly concentrated bevacizumab solution, cone/plate rheometer; format: physicochemical; conditions: Table I; bevacizumab 250 mg/mL, 150 mM additive, pH 6.2 ± 0.2, 21° C.
Excerpt: (§1) For this example, three solutions of monoclonal antibodies, i.e. a solution of bevacizumab (an IgG1 sold under the name Avastin® by Genentech/Hoffmann La Roche), a solution of infliximab (an IgG1/K sold under the name Remicade® by Schering-Plough), a solution of rituximab (an IgG1/K sold under the name mAbThera® by Hoffmann La Roche) and a solution of fusion protein, i.e. a solution of abatacept (IgG1-CTLA4 sold under the name Orencia® by Bristol-Meyers Squibb), were concentrated by ultrafiltration on Amicon® Ultra-15 filtration units with a cutoff threshold of 50 kDa.
The protein concentration of each concentrated solution was measured by UV spectroscopy (absorbance at 280 nm) after gravimetric dilution of the samples. […]
(§2) The effect of RVs 2 and 9 on the viscosity of these four highly concentrated therapeutic protein solutions was then evaluated comparatively with that of Arg and NaCl. To do this, the viscosity was measured using a cone/plate rheometer (TA Instrument, AR 2000 Ex, geometry of diameter 20 mm, cone of 0.5131°, solvent trap filled with water) at a temperature of 21° C. and in flow sweep mode with shear rates of between 5000 and 50 s^−1 (3 points per decade—steady-state sensing). […]

rituximab = assay: viscosity of highly concentrated rituximab solution, cone/plate rheometer; format: physicochemical; conditions: rituximab 196 mg/mL, 150 mM additive
Excerpt: as §1
(§3) The protein concentration of each concentrated solution was measured by UV spectroscopy (absorbance at 280 nm) after gravimetric dilution of the samples.
The solutions of rituximab (10 mg/mL) and of bevacizumab (25 mg/mL) were concentrated, respectively, to 320 mg/mL and 240 mg/mL.
(§4) The effect of RVs 2 and 9 on the viscosity of these four highly concentrated therapeutic protein solutions was then evaluated comparatively with that of Arg and NaCl.
(§5) The samples thus prepared were stored at room temperature and were analyzed using the rheometer within 24 hours of their preparation.
(§6) The pH of these formulations is the same as that of the commercial formulation of the corresponding therapeutic protein.
(§7) In this study, the highly concentrated infliximab and rituximab solutions used are the same as those which were prepared and used previously. […] The pH of these formulations is the same as that of the corresponding therapeutic protein formulation, i.e. 7.2±0.2 for infliximab, and 6.5±0.2 for rituximab.

abatacept = molecular target: T1, abatacept (Homo sapiens, UniProt P16410); assay: viscosity of highly concentrated abatacept (fusion protein) solution, cone/plate rheometer; format: physicochemical; conditions: Table I; abatacept 230 mg/mL, 150 mM additive, pH 7.5 ± 0.5, 21° C.
T1 construct: a fragment of a protein of interest which is the extracellular domain of the receptor of protein CTLA-4; purchased Bristol-Meyers Squibb (Orencia)
T1 sequence (P16410 with tags, fused parts or gaps limits assumed): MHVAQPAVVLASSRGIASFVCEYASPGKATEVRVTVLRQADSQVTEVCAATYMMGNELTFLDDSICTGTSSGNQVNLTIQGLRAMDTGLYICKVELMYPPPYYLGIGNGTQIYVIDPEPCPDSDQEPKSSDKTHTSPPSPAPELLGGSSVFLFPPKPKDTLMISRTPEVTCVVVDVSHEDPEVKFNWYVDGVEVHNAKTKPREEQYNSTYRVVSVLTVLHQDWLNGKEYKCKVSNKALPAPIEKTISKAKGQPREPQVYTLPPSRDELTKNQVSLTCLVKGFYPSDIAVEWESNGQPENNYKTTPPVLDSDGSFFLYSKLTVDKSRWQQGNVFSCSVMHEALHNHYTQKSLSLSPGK
Excerpt: as §1, §3, §2

infliximab [1] = assay: viscosity of highly concentrated infliximab solution, cone/plate rheometer at 21° C.; format: physicochemical; conditions: for % viscosity reduction relative to the control infliximab solution: Table V; for % viscosity reduction relative to the control infliximab solution / viscosity lowering on average, irrespective of the infliximab concentration: additive at 150 mM; for viscosity lowering on average, irrespective of the infliximab concentration: average over infliximab 80-110 mg/mL
Excerpt: as §1, §3, §4, §5, §6, §7
The highly concentrated infliximab solution used is the same as that which was prepared and used previously. The “protein+RV” formulations were prepared in the presence of concentrations increasing from 0 to 200 mM of Arg or RV 9. The pH of these formulations is the same as that of the commercial infliximab formulation, i.e. 7.2±0.2.
The highly concentrated infliximab solution used is the same as that which was prepared and used previously.
The pH of these formulations is the same as that of the commercial infliximab formulation, i.e. 7.2±0.2.
The highly concentrated infliximab solution used was prepared in the same manner as that used previously. […] The pH of these formulations is the same as that of the commercial infliximab formulation, i.e. 7.2±0.2.

infliximab [2] = assay: viscosity of highly concentrated infliximab formulation, cone/plate rheometer at 25° C. (example 7); format: physicochemical; conditions: Table VII; infliximab 125 mg/mL, 150 mM additive, pH 7.2 ± 0.2, 25° C.
Protocol: For this example, two monoclonal antibody formulations, i.e. infliximab and trastuzumab (an IgG1/κ sold under the name Herceptin® by Genentech) were concentrated by ultrafiltration on Amicon® Ultra-50 centrifugal filtration units with a cutoff threshold of 50 kDa. The protein concentration of each concentrated solution was measured by UV spectroscopy (absorbance at 280 nm) after gravimetric dilution of the samples. […]
(§8) The effect of RVs 2 and 11 on the viscosity of these two highly concentrated therapeutic protein formulations was then evaluated comparatively to that of Arg and NaCl. To do this, the viscosity was measured using a cone/plate rheometer (TA Instrument, AR 2000 Ex, geometry of diameter 20 mm, cone of 0.5131°, solvent trap filled with water) at a temperature of 25° C. and in flow sweep mode with shear rates of between 5000 and 50 s^−1 (3 points per decade—steady-state sensing).
For this example, the “protein+RV” formulations were prepared by mixing a solution of RV at about 1 M obtained in example 1 with one of the concentrated infliximab and trastuzumab formulations prepared previously and the corresponding buffer so as to reach a final RV concentration of 150 mM and a final protein concentration of 125 mg/mL for infliximab and 200 mg/mL for trastuzumab. […]

trastuzumab [3] = assay: viscosity of highly concentrated trastuzumab formulation, cone/plate rheometer at 25° C. (example 7); format: physicochemical; conditions: Table VII; trastuzumab 200 mg/mL, 150 mM additive, pH 6 ± 0.2, 25° C.
Protocol: For this example, two monoclonal antibody formulations, i.e. infliximab and trastuzumab (an IgG1/κ sold under the name Herceptin® by Genentech) were concentrated by ultrafiltration on Amicon® Ultra-50 centrifugal filtration units with a cutoff threshold of 50 kDa. The protein concentration of each concentrated solution was measured by UV spectroscopy (absorbance at 280 nm) after gravimetric dilution of the samples.
Once reconstituted, the infliximab and trastuzumab formulations were concentrated, respectively, to 212 mg/mL and 277 mg/mL.
as §8, with “sensing). […]” for “sensing).”

trastuzumab [4] = conditions: phenylalanine 0.2%, i.e. 12 mM; trastuzumab 300 mg/mL; WO 2013/063 510; cited from earlier work
anti-IL5 antibody = conditions: tyrosine 0.004% w/v, i.e. 0.2 mM; WO 2012/141 978; cited from earlier work
[5] = Table I, infliximab 107 mg/mL, 150 mM additive, pH 7.2 ± 0.2, 21° C.
[6] = Table II, infliximab 107 mg/mL, 150 mM additive, pH 7.2 ± 0.2
[7] = Table IV, infliximab 107 mg/mL, additive 25 mM, pH 7.2 ± 0.2
[8] = Table IV, infliximab 107 mg/mL, additive 50 mM, pH 7.2 ± 0.2
[9] = Table IV, infliximab 107 mg/mL, additive 100 mM, pH 7.2 ± 0.2
[10] = Table IV, infliximab 107 mg/mL, additive 150 mM, pH 7.2 ± 0.2
[11] = Table IV, infliximab 107 mg/mL, additive 200 mM, pH 7.2 ± 0.2
[12] = infliximab 80 mg/mL, pH 7.2 ± 0.2
[13] = infliximab 90 mg/mL, pH 7.2 ± 0.2
[14] = infliximab 100 mg/mL, pH 7.2 ± 0.2
[15] = infliximab 110 mg/mL, pH 7.2 ± 0.2

Compound: [Cl-].[Na+] [NaCl, sodium chloride]
% viscosity reduction relative to the control “protein alone” (bevacizumab): ≦0% | % viscosity reduction relative to the control “protein alone” (rituximab; Table I, pH 6.5 ± 0.2, 21° C.): 21% | % viscosity reduction relative to the control “protein alone” (rituximab; Table III, pH 6.5 ± 0.2): 21% | % viscosity reduction relative to the control “protein alone” (abatacept): 7% | % viscosity reduction relative to the control “protein alone” (infliximab [1]; [5]): ≦0% | % viscosity reduction relative to the control “protein alone” (infliximab [1]; [6]): ≦0% | % of viscosity reduction relative to the control “protein alone” (infliximab [2]): ≦0% | % of viscosity reduction relative to the control “protein alone” (trastuzumab [3]): 38%

Compound: C[N+](C)(C)Cc1ccccc1.[Cl-] [RV 5, benzyltrimethylammonium chloride]
% viscosity reduction relative to the control “protein alone” (rituximab; Table III, pH 6.5 ± 0.2): 38% | % viscosity reduction relative to the control “protein alone” (infliximab [1]; [6]): 49%

% viscosity reduction relative to the control “protein alone” (rituximab; Table III, pH 6.5 ± 0.2): 43% | % viscosity reduction relative to the control “protein alone” (infliximab [1]; [6]): 56%
Compound: Cl.NC(Cc1ccccc1)C(=O)NCCO (stereo not drawn) [RV 2, (2S-2-amino(3-phenylpropanoyl)amino)-ethanol hydrochloride salt]

Compound: Cl.N[C@H](CO)Cc1ccccc1 [RV 4, (S)-(−)-2-amino-3-phenyl-1-propanol hydrochloride salt]
% viscosity reduction relative to the control “protein alone” (rituximab; Table III, pH 6.5 ± 0.2): 37% | % viscosity reduction relative to the control “protein alone” (infliximab [1]; [6]): 36%

% viscosity reduction relative to the control “protein alone” (rituximab; Table III, pH 6.5 ± 0.2): 52% | % viscosity reduction relative to the control “protein alone” (infliximab [1]; [6]): 46%
Compound: Cl.NCCOc1ccccc1 [RV 8, 2-phenoxyethylamine hydrochloride salt]

% viscosity reduction relative to the control “protein alone” (rituximab; Table III, pH 6.5 ± 0.2): 48% | % viscosity reduction relative to the control “protein alone” (infliximab [1]; [6]): 52% | % viscosity reduction relative to the control “protein alone” (infliximab [1]; [7]): 19% | % viscosity reduction relative to the control “protein alone” (infliximab [1]; [8]): 31% | % viscosity reduction relative to the control “protein alone” (infliximab [1]; [9]): 41% | % viscosity reduction relative to the control “protein alone” (infliximab [1]; [10]): 44% | % viscosity reduction relative to the control “protein alone” (infliximab [1]; [11]): 56% | % viscosity reduction relative to the control infliximab solution (infliximab [1]; [12]): 50% | % viscosity reduction relative to the control infliximab solution (infliximab [1]; [13]): 52% | % viscosity reduction relative to the control infliximab solution (infliximab [1]; [14]): 55% | % viscosity reduction relative to the control infliximab solution (infliximab [1]; [15]): 49% | viscosity lowering on average, irrespective of the infliximab concentration (infliximab [1]): about 52% | concentration sufficient to obtain a viscosity reduction equivalent to that obtained using Arg at 150 mM (infliximab [1]; infliximab 107 mg/mL): 50000 µM | efficiency in viscosity reduction relative to Arg (infliximab [1]; infliximab 107 mg/mL, at 100 mM): about 4 times | efficiency in viscosity reduction relative to Arg (infliximab [1]; infliximab 107 mg/mL, at 150 mM): twice as efficient as Arg
Compound: Cl.NC(=O)[C@@H](N)Cc1ccccc1 [RV 9, L-phenylalaninamide hydrochloride salt]

Compound: N[C@@H](Cc1ccccc1)C(=O)O [phenylalanine]
increase of the viscosity of a trastuzumab formulation (trastuzumab [4]): 83%

Compound: N[C@@H](Cc1ccc(O)cc1)C(=O)O [tyrosine]
increase of the viscosity of the anti-IL5 antibody solution (anti-IL5 antibody): 44%

Compound: Cl.N=C(N)NCCC[C@H](N)C(=O)O [Arg, L-arginine hydrochloride salt]
% viscosity reduction relative to the control “protein alone” (bevacizumab): 26% | % viscosity reduction relative to the control “protein alone” (rituximab; Table I, pH 6.5 ± 0.2, 21° C.): 58% | % viscosity reduction relative to the control “protein alone” (rituximab; Table III, pH 6.5 ± 0.2): 58% | % viscosity reduction relative to the control “protein alone” (abatacept): 31% | % viscosity reduction relative to the control “protein alone” (infliximab [1]; [5]): 32% | % viscosity reduction relative to the control “protein alone” (infliximab [1]; [6]): 32% | % viscosity reduction relative to the control “protein alone” (infliximab [1]; [7]): 9% | % viscosity reduction relative to the control “protein alone” (infliximab [1]; [8]): 13% | % viscosity reduction relative to the control “protein alone” (infliximab [1]; [9]): 9% | % viscosity reduction relative to the control “protein alone” (infliximab [1]; [10]): 31% | % viscosity reduction relative to the control “protein alone” (infliximab [1]; [11]): 34% | % viscosity reduction relative to the control infliximab solution (infliximab [1]; [12]): 25% | % viscosity reduction relative to the control infliximab solution (infliximab [1]; [13]): 30% | % viscosity reduction relative to the control infliximab solution (infliximab [1]; [14]): 39% | % viscosity reduction relative to the control infliximab solution (infliximab [1]; [15]): 22% | viscosity lowering on average, irrespective of the infliximab concentration (infliximab [1]): about 29% | % of viscosity reduction relative to the control “protein alone” (infliximab [2]): 11% | % of viscosity reduction relative to the control “protein alone” (trastuzumab [3]): 56%

Compound: Cl.NCCc1ccc(O)c(O)c1 [RV 7, dopamine hydrochloride salt]
% viscosity reduction relative to the control “protein alone” (rituximab; Table III, pH 6.5 ± 0.2): 39% | % viscosity reduction relative to the control “protein alone” (infliximab [1]; [6]): 38%

Compound: Cl.NCCc1ccccc1 [RV 6, 2-phenylethylamine hydrochloride salt]
% viscosity reduction relative to the control “protein alone” (rituximab; Table III, pH 6.5 ± 0.2): 39% | % viscosity reduction relative to the control “protein alone” (infliximab [1]; [6]): 38%
